Molecular target: T1, γ-humulene synthase (SEQ ID No:24) (Abies grandis, UniProt O64405)
T1 construct: For further subcloning of the amplified, full-length cDNA into the pSBETa vector for high-level expression, the pGAG5 insert was amplified; made in house; host or cells: E. coli XL1-Blue/pGAG5 or E. coli BL21(DE3)/pSBAG5
T1 sequence (O64405 1-593): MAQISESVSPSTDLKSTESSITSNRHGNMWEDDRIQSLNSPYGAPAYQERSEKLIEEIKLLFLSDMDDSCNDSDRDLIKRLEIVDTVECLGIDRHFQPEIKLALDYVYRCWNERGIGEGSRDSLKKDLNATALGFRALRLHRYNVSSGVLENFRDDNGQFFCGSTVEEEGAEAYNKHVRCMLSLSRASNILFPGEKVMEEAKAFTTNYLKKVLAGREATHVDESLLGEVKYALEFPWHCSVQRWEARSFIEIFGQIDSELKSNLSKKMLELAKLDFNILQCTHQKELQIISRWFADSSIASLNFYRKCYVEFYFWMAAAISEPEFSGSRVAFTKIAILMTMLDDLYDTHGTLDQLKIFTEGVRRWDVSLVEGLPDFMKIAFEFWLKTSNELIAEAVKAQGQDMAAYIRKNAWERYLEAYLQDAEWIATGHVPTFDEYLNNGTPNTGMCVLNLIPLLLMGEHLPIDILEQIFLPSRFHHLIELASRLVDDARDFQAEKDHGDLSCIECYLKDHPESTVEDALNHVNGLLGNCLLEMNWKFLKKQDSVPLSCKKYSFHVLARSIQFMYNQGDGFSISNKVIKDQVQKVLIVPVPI
Test: Kinetic parameters, metal ion requirement and substrate specificity of recombinant γ-humulene synthase
Format: biochemical
Procedure: The assay for recombinant sesquiterpene synthase (cyclase) activity was performed in 1 ml of buffer (extraction buffer without MnCl2 or the polymeric adsorbents) containing 3.5 μM [1-^3H]farnesyl diphosphate and the total protein extracted from a 5 ml bacterial culture to produce 10^5-10^6 dpm of product in 2 h at 31° C. The incubation mixture was overlaid with 1 ml pentane to trap volatile products. After incubation, the reaction mixture was extracted with pentane (3×1 ml) and the combined extract was passed through a MgSO4-silica gel column to provide the terpene hydrocarbon fractions as before. The columns were subsequently eluted with 3×1 ml of ether to collect any oxygenated products, and an aliquot of each fraction was taken for liquid scintillation counting to determine conversion rate. The monoterpene synthase and diterpene synthase activity assays were similarly performed as described in detail elsewhere (LaFever, R. E., et al., (1994) Arch. Biochem. Biophys. 313, 139-149; Bohlmann, J., et al., (1997) J. Biol. Chem. 272, 21784-21792; Lewinsohn, E., et al., (1991) Plant Physiol. 96, 38-43).
The substrate specificity and other kinetic. parameters of γ-humulene synthase (SEQ ID No:24) and δ-selinene synthase (SEQ ID No:20) were investigated in order to confirm the identification and classification of these enzymes. […] Neither of these sesquiterpene synthases requires K^+ or other monovalent cation for activity.
Substrate specificity of δ-selinene synthase (SEQ ID No:20) and γ-humulene synthase (SEQ ID No:24) was evaluated by comparing farnesyl diphosphate (C15) to geranyl diphosphate (C10) and geranylgeranyl diphosphate (C20) at saturation as precursors of the respective terpene olefins. […] The identities of the monoterpene products produced by the sesquiterpene synthases were determined by GLC-MS and are set forth in FIG. 4.

SMILES | olefin formation from substrate at saturation, compared with farnesyl diphosphate
CC(C)=CCC/C(C)=C/COP(=O)(O)OP(=O)(O)O [geranyl diphosphate, reference compound] | roughly half the rate
CC(C)=CCC/C(C)=C/CC/C(C)=C/CC/C(C)=C/COP(=O)(O)OP(=O)(O)O [geranylgeranyl diphosphate, reference compound] | failed to generate detectable olefinic products
